Test results from the supplement of paper PMC13380429.

Tests used:
Conditions in all cases: 72 h
Calu-3 [1] = experiment: drug sensitivity score (DSS) for viability; higher = more toxic; extreme values may be limits of the assay
U2OS [2] = experiment: as above
HepG2 [3] = experiment: as above
Vero E6 [4] = experiment: as above
Caco-2 [5] = experiment: as above
Calu-3 [6] = experiment: cell viability relative to DMSO; higher = less toxic
U2OS [7] = experiment: as above
HepG2 [8] = experiment: as above
Vero E6 [9] = experiment: as above
Caco-2 [10] = experiment: as above
Calu-3 [11] = experiment: relative viability EC50 (midpoint between 100% and the lowest measured viability); higher = less toxic
U2OS [12] = experiment: as above
Vero E6 [13] = experiment: as above
Caco-2 [14] = experiment: as above
HepG2 [15] = experiment: as above

COc1ccc2nc(NC(=O)Nc3ccccc3)sc2c1 [frentizole]
drug sensitivity score (Calu-3 [1]): 0
drug sensitivity score (U2OS [2]): 0
drug sensitivity score (HepG2 [3]): 3.7
drug sensitivity score (Vero E6 [4]): 0
drug sensitivity score (Caco-2 [5]): 1.2
cell viability (Calu-3 [6]; 1 nM): 110%
cell viability (Calu-3 [6]; 10 nM): 99.4%
cell viability (Calu-3 [6]; 100 nM): 93.7%
cell viability (Calu-3 [6]; 1000 nM): 107%
cell viability (Calu-3 [6]; 10000 nM): 91.1%
cell viability (U2OS [7]; 1 nM): 95.7%
cell viability (U2OS [7]; 10 nM): 97.2%
cell viability (U2OS [7]; 100 nM): 97%
cell viability (U2OS [7]; 1000 nM): 95%
cell viability (U2OS [7]; 10000 nM): 95.3%
cell viability (HepG2 [8]; 1 nM): 101%
cell viability (HepG2 [8]; 10 nM): 105%
cell viability (HepG2 [8]; 100 nM): 93.8%
cell viability (HepG2 [8]; 1000 nM): 89.7%
cell viability (HepG2 [8]; 10000 nM): 56.8%
cell viability (Vero E6 [9]; 1 nM): 100%
cell viability (Vero E6 [9]; 10 nM): 105%
cell viability (Vero E6 [9]; 100 nM): 98.6%
cell viability (Vero E6 [9]; 1000 nM): 97.1%
cell viability (Vero E6 [9]; 10000 nM): 97.5%
cell viability (Caco-2 [10]; 1 nM): 103%
cell viability (Caco-2 [10]; 10 nM): 98.3%
cell viability (Caco-2 [10]; 100 nM): 88%
cell viability (Caco-2 [10]; 1000 nM): 88.2%
cell viability (Caco-2 [10]; 10000 nM): 87.9%
relative viability EC50 (Calu-3 [11]): > 10 µM
relative viability EC50 (U2OS [12]): > 10 µM
relative viability EC50 (Vero E6 [13]): > 10 µM
relative viability EC50 (Caco-2 [14]): > 10 µM

Cc1c(I)c(=O)n(-c2ccccc2)n1C [iodoantipyrine]
drug sensitivity score (Calu-3 [1]): 0
drug sensitivity score (HepG2 [3]): 0
drug sensitivity score (Vero E6 [4]): 0
drug sensitivity score (Caco-2 [5]): 0
cell viability (Calu-3 [6]; 1 nM): 105%
cell viability (Calu-3 [6]; 10 nM): 106%
cell viability (Calu-3 [6]; 100 nM): 96.1%
cell viability (Calu-3 [6]; 1000 nM): 93.7%
cell viability (Calu-3 [6]; 10000 nM): 93.2%
cell viability (HepG2 [8]; 1 nM): 94.7%
cell viability (HepG2 [8]; 10 nM): 102%
cell viability (HepG2 [8]; 100 nM): 95%
cell viability (HepG2 [8]; 1000 nM): 102%
cell viability (HepG2 [8]; 10000 nM): 91.2%
cell viability (Vero E6 [9]; 1 nM): 98.8%
cell viability (Vero E6 [9]; 10 nM): 93.3%
cell viability (Vero E6 [9]; 100 nM): 96.9%
cell viability (Vero E6 [9]; 1000 nM): 95.3%
cell viability (Vero E6 [9]; 10000 nM): 101%
cell viability (Caco-2 [10]; 1 nM): 107%
cell viability (Caco-2 [10]; 10 nM): 104%
cell viability (Caco-2 [10]; 100 nM): 94.8%
cell viability (Caco-2 [10]; 1000 nM): 99.4%
cell viability (Caco-2 [10]; 10000 nM): 98.7%
relative viability EC50 (Calu-3 [11]): > 10 µM
relative viability EC50 (HepG2 [15]): > 10 µM
relative viability EC50 (Vero E6 [13]): > 10 µM
relative viability EC50 (Caco-2 [14]): > 10 µM

O=c1[nH]c2ccccc2n1C1CCN(CCOc2ccccc2)CC1 [oxiperomide]
drug sensitivity score (Calu-3 [1]): 0.1
drug sensitivity score (U2OS [2]): 0
drug sensitivity score (HepG2 [3]): 1.9
drug sensitivity score (Vero E6 [4]): 0.7
drug sensitivity score (Caco-2 [5]): 0
cell viability (Calu-3 [6]; 1 nM): 112%
cell viability (Calu-3 [6]; 10 nM): 101%
cell viability (Calu-3 [6]; 100 nM): 97.1%
cell viability (Calu-3 [6]; 1000 nM): 97.9%
cell viability (Calu-3 [6]; 10000 nM): 88.2%
cell viability (U2OS [7]; 1 nM): 98.9%
cell viability (U2OS [7]; 10 nM): 108%
cell viability (U2OS [7]; 100 nM): 100%
cell viability (U2OS [7]; 1000 nM): 99.8%
cell viability (U2OS [7]; 10000 nM): 91.6%
cell viability (HepG2 [8]; 1 nM): 104%
cell viability (HepG2 [8]; 10 nM): 112%
cell viability (HepG2 [8]; 100 nM): 95.7%
cell viability (HepG2 [8]; 1000 nM): 98.1%
cell viability (HepG2 [8]; 10000 nM): 64.7%
cell viability (Vero E6 [9]; 1 nM): 97.4%
cell viability (Vero E6 [9]; 10 nM): 95.8%
cell viability (Vero E6 [9]; 100 nM): 98.6%
cell viability (Vero E6 [9]; 1000 nM): 99.4%
cell viability (Vero E6 [9]; 10000 nM): 78.7%
cell viability (Caco-2 [10]; 1 nM): 104%
cell viability (Caco-2 [10]; 10 nM): 105%
cell viability (Caco-2 [10]; 100 nM): 87.3%
cell viability (Caco-2 [10]; 1000 nM): 104%
cell viability (Caco-2 [10]; 10000 nM): 87.2%
relative viability EC50 (Calu-3 [11]): > 10 µM
relative viability EC50 (U2OS [12]): > 10 µM
relative viability EC50 (Vero E6 [13]): > 10 µM
relative viability EC50 (Caco-2 [14]): > 10 µM

Nc1n[n+]([O-])c2ccccc2[n+]1[O-] [tirapazamine]
drug sensitivity score (Calu-3 [1]): 0
drug sensitivity score (U2OS [2]): 0
drug sensitivity score (HepG2 [3]): 2.8
drug sensitivity score (Vero E6 [4]): 0
drug sensitivity score (Caco-2 [5]): 0
cell viability (Calu-3 [6]; 1 nM): 104%
cell viability (Calu-3 [6]; 10 nM): 103%
cell viability (Calu-3 [6]; 100 nM): 107%
cell viability (Calu-3 [6]; 1000 nM): 97.8%
cell viability (Calu-3 [6]; 10000 nM): 102%
cell viability (U2OS [7]; 1 nM): 100%
cell viability (U2OS [7]; 10 nM): 98.9%
cell viability (U2OS [7]; 100 nM): 99.1%
cell viability (U2OS [7]; 1000 nM): 97.8%
cell viability (U2OS [7]; 10000 nM): 99%
cell viability (HepG2 [8]; 1 nM): 92.3%
cell viability (HepG2 [8]; 10 nM): 91.1%
cell viability (HepG2 [8]; 100 nM): 93.2%
cell viability (HepG2 [8]; 1000 nM): 88.9%
cell viability (HepG2 [8]; 10000 nM): 63.9%
cell viability (Vero E6 [9]; 1 nM): 101%
cell viability (Vero E6 [9]; 10 nM): 97.6%
cell viability (Vero E6 [9]; 100 nM): 101%
cell viability (Vero E6 [9]; 1000 nM): 95.6%
cell viability (Vero E6 [9]; 10000 nM): 90.7%
cell viability (Caco-2 [10]; 1 nM): 99.9%
cell viability (Caco-2 [10]; 10 nM): 102%
cell viability (Caco-2 [10]; 100 nM): 92.3%
cell viability (Caco-2 [10]; 1000 nM): 94.8%
cell viability (Caco-2 [10]; 10000 nM): 90.4%
relative viability EC50 (Calu-3 [11]): > 10 µM
relative viability EC50 (U2OS [12]): > 10 µM
relative viability EC50 (Vero E6 [13]): > 10 µM
relative viability EC50 (Caco-2 [14]): > 10 µM
